In PubChem BioAssay AID1219 (NMMLSC, 2008):
Inconclusive results are not listed. Active and inactive are the calls of the source.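 Rule for the calls: active = score of 100, fluorescent reporter fully moved to nucleus as with estrogen, or estrogen effect fully blocked; inactive = score of 0 or 50, partial or no effect.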

The compounds below were run against G-protein coupled estrogen receptor 1 (Homo sapiens) (UniProt Q99527) (assay: GPR30 agonism via PIP3 reporter nuclear relocation, confirmation, orthogonal assay for GPR30 ligand project, imaging, Cos7 GPR30-GFP, PH-RFP, Akt PH domain (AID 1219)). Conditions: at 10 µM, hits give high values.
Work on Cc1cc(C)c2c(c1)[C@@H]1C=CC[C@@H]1[C@H](c1ccc(S(=O)(=O)N3CCOCC3)cc1)N2 yielded a translocation response score of 100. Nc1ncnc2c1ncn2C1CCC(CO)C(O)C1 (configuration not stated) was tested, and the translocation response score was 50 (inactive). In the case of O=C(O)c1cc(Cl)c2c(c1)[C@@H]1C=CC[C@@H]1[C@H](c1ccc(S(=O)(=O)N3CCOCC3)cc1)N2, the translocation response score is reported as 50 (inactive). With Cc1cc(-c2nn3c(-c4ccccc4)nnc3s2)c2ccccc2n1 the translocation response score was 100. With COc1cccc(NS(=O)(=O)c2ccc3c(c2)C2C=CCC2C(c2ccc(C(=O)O)cc2)N3)c1 (configuration not stated) the translocation response score was 50 (inactive). Work on COc1ccccc1N1CCN(C(=O)c2ccc3nc(-c4ccco4)c(-c4ccco4)nc3c2)CC1 yielded a translocation response score of 100. O=C(O)c1ccc2c(c1)C1C(Cl)C(Sc3ccccc3[N+](=O)[O-])CC1C(c1cccc([N+](=O)[O-])c1)N2 (configuration not stated) was tested, and the translocation response score was 0 (inactive).
